Source: ChEMBL document CHEMBL1777743, “Macrolactin W, a new antibacterial macrolide from a marine Bacillus sp” (2011)
≈ marks a conversion by molar mass, not a printed value. Calls of active or inactive are those of the source. The rule behind the calls is not given here.

Columns and labels:
Bacillus subtilis = test: Antibacterial activity against Bacillus subtilis KCTC 1021 after 18 hrs by serial dilution technique; type: functional; details: KCTC 1021, 18 h
Staphylococcus aureus = test: Antibacterial activity against Staphylococcus aureus KCTC 1916 after 18 hrs by serial dilution technique; type: functional; details: KCTC 1916, 18 h
Escherichia coli = test: Antibacterial activity against Escherichia coli KCTC 1923 after 18 hrs by serial dilution technique; type: functional; details: KCTC 1923, 18 h
Pseudomonas aeruginosa = test: Antibacterial activity against Pseudomonas aeruginosa KCTC 2592 after 18 hrs by serial dilution technique; type: functional; details: KCTC 2592, 18 h
ACHN = test: Cytotoxicity against human ACHN at 10 ug/ml; type: functional, cell-based
HCT-15 = test: Cytotoxicity against human HCT15 at 10 ug/ml; type: functional, cell-based
MDA-MB-231 = test: Cytotoxicity against human MDA-MB-231 at 10 ug/ml; type: functional, cell-based
NCI-H23 = test: Cytotoxicity against human NCI-H23 at 10 ug/ml; type: functional, cell-based
NUGC-3 = test: Cytotoxicity against human NUGC3 at 10 ug/ml; type: functional, cell-based
PC-3 = test: Cytotoxicity against human PC3 at 10 ug/ml; type: functional, cell-based

MIC (Bacillus subtilis): 64 mg/L (≈ 96.3 µM) | MIC (Staphylococcus aureus): 64 mg/L (≈ 96.3 µM) | MIC (Escherichia coli): 64 mg/L (≈ 96.3 µM) | MIC (Pseudomonas aeruginosa): 64 mg/L (≈ 96.3 µM)
Compound: C[C@H]1CCC/C=C\C=C\[C@H](O)C[C@@H](O)C/C=C\C=C\[C@@H](OC(=O)CCC(=O)O[C@H]2O[C@@H](CO)[C@H](O)[C@@H](O)[C@@H]2O)C/C=C/C=C\C(=O)O1 [MACROLACTIN W]
Activity (ACHN): inactive | Activity (HCT-15): inactive | Activity (MDA-MB-231): inactive | Activity (NCI-H23): inactive | Activity (NUGC-3): inactive | Activity (PC-3): inactive
